Laboratory results: US20260215432A1, “ANTIMICROBIAL CONJUGATED OLIGOELECTROLYTES AND METHODS THEREOF” (National University of Singapore, priority 2023, published 2026)

Assays:
[1] = tested on: E. coli. K12 (ATCC 10798); assay: MIC, broth microdilution in CA-MHB; type: cell-based; conditions: ATCC 10798, Table 7
Experimental: Antimicrobial activity was screened against a range of pathogens made up of clinically relevant ESKAPE pathogens by determination of the minimum inhibitory concentration (MIC) in cation-adjusted Mueller-Hinton broth (CA-MHB).
(§1) Minimum inhibitory concentrations of COEs were determined through a broth microdilution method in accordance with the Clinical and Laboratory Standards Institute (CLSI) guidelines M07-A10. A single bacterial colony was isolated from an overnight culture and grown to mid-log phase (OD600~0.8). Compounds were prepared as a stock solution in DMSO and diluted in a sterile flat-bottom 96-well plate in CA-MHB. Subsequent concentrations were prepared by two-fold dilution of the initial solution. An equivalent volume of bacteria was added to the compound to a final concentration of 5×10^5 cfu/mL. Plates were incubated at 37° C. for 16-18 hours, and read at OD600 using a microplate reader (TECAN Spark®). […] MIC values were determined for each compound in triplicate.

[2] = tested on: methicillin-resistant S. aureus (USA300); assay: MIC of compounds 1-5; type: cell-based; conditions: USA300, Table 7
Experimental: as §1, with “triplicate. For each test, Polymyxin B (Gram-negative) or vancomycin (Gram-positive) was used as a positive control.” for “triplicate.”

SMILES	MIC E. coli K12 [1] [µg/mL]	MIC MRSA [2] [µg/mL]
[I-].[I-].c1ccc([P+](CCCCCCCCOc2ccc(/N=N/c3ccc(OCCCCCCCC[P+](c4ccccc4)(c4ccccc4)c4ccccc4)cc3)cc2)(c2ccccc2)c2ccccc2)cc1 [Compound 3]	32	4
C(=C\c1cc(OCCC[P+](c2ccccc2)(c2ccccc2)c2ccccc2)cc(OCCC[P+](c2ccccc2)(c2ccccc2)c2ccccc2)c1)/c1ccc(/C=C/c2cc(OCCC[P+](c3ccccc3)(c3ccccc3)c3ccccc3)cc(OCCC[P+](c3ccccc3)(c3ccccc3)c3ccccc3)c2)cc1.[I-].[I-].[I-].[I-] [Compound 5]	64	32
